Molecular target: sigma receptors
Test: Inhibition of 3H-DTG binding to sigma receptors in rat brain in vitro
Details: 2 nM 3H-DTG, rat brain without cerebellum, 25° C., 20 min
Description: INHIBITION OF 3H-DTG BINDING TO SIGMA RECEPTORS IN RAT BRAIN IN VITRO
By this method the inhibition by drugs of the binding of 2 nM ^3 H-DTG (1,3,di-o-tolyl guanidine) to sigma receptors in homogenates or membranes from rat brain without cerebellum is determined in vitro as modified from Weber et al. Proc. Natl. Acad. Sci. 1986, 83,8784.
Homogenate: Rats (150-250 g) are decapitated and the brains (without cerebellum) quickly removed and placed on ice, weighed and homogenized in 100 vol ice-cold (0° C.) 50 mM Tris-buffer (pH 7.7) in an ethanol rinsed glass/teflon homogenizer at 0° C. and kept on ice until use.
P2-membranes: Brains are homogenized in 10 vol 0.32 M sucrose in an ethanol rinsed glass/teflon homogenizer with 10 strokes up and down. The homogenate is centrifuged for 10 min at 900×gm at 4° C. The supernatant is decanted and centrifuged for 20 min at 50,000 gm at 4° C. The resulting pellet is resuspended in 10 vol ice-cold […] Tris-buffer (pH 7.7) and incubated for 30 min. at 37° C. The membrane suspension is then centrifuged for further 20 min. at 50,000 gm at 4° C. The pellet is resuspended in 50 vol. of ice-cold Tris-buffer and used immediately.
0.5 ml 50 mM Tris-buffer (pH 7.7), 0.25 ml displacer (6×100 μM DTG, 6× [test compound], or Tris-buffer), and 0.25 ml 6×2 nM. ^3 H-DTG are mixed into 5 ml s plastic test tubes and kept at 4° C. until use. The binding reaction is initiated by mixing 0.5 ml tissue suspension into this solution and incubate at 25° C. for 20 min. Glass fiber filters (Whatman GF/B) are placed on the filter machine which is then closed tightly. Just before filtration vacuum is applied, and the filters washed with 0.1% PEI solution from a spray bottle followed by one wash with Tris-buffer.
The binding reaction is stopped by filtration of the assay mixture at reduced pressure (750 mbar) followed by further 3 washes with 5 ml ice-cold Tris-buffer. The filters are then placed in counting vials and 4 ml scintillation solution added. The vials are counted in a Beckmann scintillation counter.
50 mM Tris-buffer pH 7.7: 7.38 g Trizma--7.7 plus distilled H2 O ad 1 liter. 100 ml 10% polyethylenimine (PEI): 100 ml dest. H2 O is added to approx. 20 g 50% PEI which is solubilized by stirring and heating. Diluted (1+99) before use. 6×2 nM ^3 H-DTG: The exact volume depends on the actual concentration of the batch, but is made as close as possible to 12 nM. The containers for the radioactive solution is rinsed in 96% ethanol before use.
^3 H-DTG was obtained from NEN Research Products, Du Pont Denmark. Specific activity 62.3 Ci/mmol.
The known sigma receptor ligands BMY 14802 and rimcazole were included in the test for comparison purposes.

Compound | IC50
1'-[3-(2,3-Dihydro-5-fluoro-benzofuran-3-yl)-1-butyl]-spiro[isobenzofuran-1(3H),4'-piperidine] [Compound 11b] | 0.63 nM
CCCCCN1CCC2(CC1)OCc1ccccc12 [Compound 1b, 1'-Pentylspiro[isobenzofuran-1(3H),4'-piperidine]] | 3.7 nM
c1ccc(CCCCN2CCC3(CC2)OCc2ccccc23)cc1 [Compound 2a, 1'-(4-Phenyl-1-butyl)spiro[isobenzofuran-1(3H),4'-piperidine]] | 0.25 nM
Fc1ccc2[nH]cc(CCCCN3CCC4(CC3)OCc3ccccc34)c2c1 [Compound 2aa] | 0.3 nM
c1ccc2c(c1)COC21CCN(CCCCC2CCCCC2)CC1 [Compound 2b, 1'-(4-Cyclohexyl-1-butyl)spiro[isobenzofuran-1(3H), 4'-piperidine)] | 0.07 nM
Cn1cc(CCCCN2CCC3(CC2)OCc2ccccc23)c2ccccc21 [Compound 2bb, 1'-[4-(1-Methyl-3-indolyl)-1-butyl]-spiro[isobenzofuran-1(3H),4'-piperidine]] | 0.3 nM
c1ccc(CCCCN2CCC3(CCc4ccccc43)CC2)cc1 [Compound 2c, 2,3-Dihydro-1'-(4-phenyl-1-butyl)spiro[1H-indene-1,4'-piperidine]] | 0.51 nM
c1ccc(C2CCN(CCCCc3c[nH]c4ccccc34)CC2)cc1 [Compound 2cc, 3-[4-(4-Phenyl-1-piperidyl)-1-butyl]indole] | 1.1 nM
c1ccc(CCCCN2CCC3(CC2)SCc2ccccc23)cc1 [Compound 2d, 1'-(4-Phenyl-1-butyl)spiro[benzo[c]thiophene-1(3H),4'-piperidine]] | 0.77 nM
Clc1ccc(C2CCN(CCCCc3c[nH]c4ccccc34)CC2)cc1Cl [Compound 2dd, 3-[4-(4-(3,4-Dichlorophenyl)-1-piperidyl)-1-butyl]indole] | 1.7 nM
c1ccc(CCCCN2CCC3(CCCc4ccccc43)CC2)cc1 [Compound 2e, 3,4-Dihydro-1'-(4-phenyl-1-butyl)spiro[naphtalene-1(2H),4'-piperidine]] | 1.2 nM
Fc1ccc(C2CCN(CCCCc3c[nH]c4cc(Cl)c(Cl)cc34)CC2)cc1 [Compound 2ee, 5,6-Dichloro-3-[4-(4-(4-fluorophenyl)-1-piperidyl)-1-butyl]-indole] | 1 nM
c1ccc(CCCCN2CCC3(CC2)COCc2ccccc23)cc1 [Compound 2f] | 0.95 nM
Fc1ccc(C2CCN(CCCCCCc3c[nH]c4ccccc34)CC2)cc1 [Compound 2ff, 3-[6-(4-(4-Fluorophenyl)-1-piperidinyl)-1-hexyl]indole] | 0.43 nM
c1ccc(CCCCN2CCC3(CC2)Cc2ccccc2CO3)cc1 [Compound 2g, 1,4-Dihydro-1'-(4-phenyl-1-butyl)spiro[3H-2-benzopyran-3,4'-piperidine]] | 0.36 nM
COc1ccccc1C1CCN(CCCCc2c[nH]c3ccccc23)CC1 [Compound 2gg, 3-[4-(4-(2-Methoxyphenyl)-1-piperidinyl)-1-butyl]indol] | 3.3 nM
c1ccc(CCCCN2CCC3(CCc4ccccc4O3)CC2)cc1 [Compound 2h, 3,4-Dihydro-1'-(4-phenyl-1-butyl)spiro[2H-1-benzopyran-2,4'-piperidine]] | 1.4 nM
c1ccc(Cn2cc(CCCCN3CCC4(CC3)OCc3ccccc34)c3ccccc32)cc1 [Compound 2hh, 1'-[4-(1-Benzyl-3-indolyl)-1-butyl]-spiro[isobenzofuran-1(3h),4'-piperidine]] | 0.02 nM
C1=CC2(CCN(CCCCc3ccccc3)CC2)Oc2ccccc21 [Compound 2i, 1'-(4-Phenyl-1-butyl)spiro[2H-1-benzopyran-2,4'-piperidine]] | 4.3 nM
O=C1Nc2ccccc2C1CCCCN1CCC(c2ccc(F)cc2)CC1 (centres unmarked) [Compound 2ii, 3-[4-(4-(4-Fluorophenyl)-1-piperidyl)-1-butyl]indol-2-one] | 5.8 nM
c1ccc2c(c1)COC21CCN(CCCOC2CCCCC2)CC1 [Compound 2j, 1'-(3-Cyclohexyloxy-1-propyl)spiro[isobenzofuran-1(3H),4'-piperidine]] | 0.07 nM

Compound | IC50
Fc1ccc2c(c1)C1(CCN(CCCCc3c[nH]c4ccccc34)CC1)OC2 [Compound 2jj, 6-Fluoro-1'-(4-(3-indolyl)-1-butyl)spiro[isobenzofuran-1(3H),4'-piperidine]] | 1.4 nM
c1ccc(OCCCN2CCC3(CC2)OCc2ccccc23)cc1 [Compound 2k, 1'-(3-Phenoxy-1-propyl)spiro[isobenzofuran-1(3H),4'-piperidine]] | 0.19 nM
c1ccc(OCCCN2CCC3(CC2)Cc2ccccc2CO3)cc1 [Compound 2l, 1'-(3-Phenoxy-1-propyl)spiro[3H-2-benzopyran-3,4'-piperidine]] | 3.8 nM
CSCCCN1CCC2(CC1)OCc1ccccc12 [Compound 2n, 1'-(3-Methylthio-1-propyl)spiro[isobenzofuran-1(3H),4'-piperidine]] | 6 nM
c1ccc(SCCCN2CCC3(CC2)OCc2ccccc23)cc1 [Compound 2p, 1'-(3-Phenylthio-1-propyl)spiro[isobenzofuran-1(3H),4'-piperidine]] | 0.32 nM
O=S(=O)(CCCN1CCC2(CC1)OCc1ccccc12)C1CCCCC1 [Compound 2r, 1'-(3-Cyclohexylsulfonyl-1-propyl)spiro[isobenzofuran-1(3H),4'-piperidine]] | 3 nM
O=S(=O)(CCCN1CCC2(CC1)OCc1ccccc12)c1ccccc1 [Compound 2s, 1'-(3-Phenylsulfonyl-1-propyl)spiro[isobenzofuran-1 (3H),4'-piperidine]] | 3.1 nM
c1ccc(CCCCN2C3CCC2CC2(C3)OCc3ccccc32)cc1 (centres unmarked) [Compound 2t, 8'-(4-Phenyl-1-butyl)spiro[isobenzofuran-1(3H),3'-8-azabicyclo[3,2,1]octane]] | 5.4 nM
c1ccc2c(c1)COC21CCN(CCCCc2c[nH]c3ccccc23)CC1 [Compound 2u, 1'-[4-(3-Indolyl)-1-butyl]-spiro[isobenzofuran-1(3H),4'-piperidine]] | 0.41 nM
c1ccc2c(c1)COCC21CCN(CCCCc2c[nH]c3ccccc23)CC1 [Compound 2v, 1'-[4-(3-Indolyl)-1-butyl]-spiro[1H-2-benzopyran-4(3H),4'-piperidine]] | 1.8 nM
c1ccc2c(c1)COCC21CCN(CCCCCc2c[nH]c3ccccc23)CC1 [Compound 2x, 1'-[5-(3-Indolyl)-1-pentyl]-spiro[1H-2-benzopyran-4(3H),4'-piperidine]] | 1.6 nM
c1ccc2c(c1)COCC21CCN(CCCCCCc2c[nH]c3ccccc23)CC1 [Compound 2y, 1'-[6-(3-Indolyl)-1-hexyl]-spiro[1H-2-benzopyran-4(3H),4'-piperidine]] | 0.84 nM
Clc1cc2[nH]cc(CCCCN3CCC4(CC3)OCc3ccccc34)c2cc1Cl [Compound 2z, 1'-[4-(5,6-Dichloro-3-indolyl)-1-butyl]-spiro[isobenzofuranr-1(3H) ,4'-piperidine]] | 1.5 nM
O=C1N(CCCCN2CCC3(CC2)OCc2ccccc23)CCN1C1CCCCC1 [Compound 3a, 1'-(4-(3-Cyclohexylimidazolidin-2-on-1-yl)-1-butyl)spiro[isobenzofuran-1 (3H), 4'-piperidine]] | 2.2 nM
O=C1N(CCN2CCC3(CC2)OCc2ccccc23)CCN1c1ccccc1 [Compound 3b] | 4.8 nM
O=C1N(CCCN2CCC3(CC2)OCc2ccccc23)CCN1c1ccccc1 [Compound 3c] | 1 nM
O=C1N(CCN2CCC3(CC2)OCc2ccccc23)CCN1C1CCCCC1 [Compound 3d, 1'-(2-(3-Cyclohexylimidazolidin-2-on-1-yl)-1-ethyl)spiro[isobenzofuran-1(3H),4'-piperidine)] | 7.3 nM
CCCN1CCC2(CC1)OCc1ccccc12 [Compound 4a, 1'-Propyl-spiro[isobenzofuran-1(3H),4'-piperidine]] | 23 nM
CC(C)CCCCN1CCC2(CC1)OCc1ccccc12 [Compound 4b, 1'-(5-Methyl-1-hexyl)-spiro[isobenzofuran-1(3H),4'-piperidine)] | 0.53 nM
c1ccc(CCN2CCC3(CC2)OCc2ccccc23)cc1 [Compound 4c, 1'-(2-Phenyl-1-ethyl)-spiro[isobenzofuran-1(3h),4'-piperidine]] | 2.9 nM

From patent US6207677A, “Piperidine derivatives having anxiolytic effect” (H. Lundbeck A/S, priority 1991, dated 2001)
